Data from patent US12685312B2, “Sulfonamide apyrase inhibitors” (Texas Crop Science, Inc., priority 2022, dated 2026).

What follows are molecules tested on apyrase (assay: Screen for apyrase inhibitors (Method 1, in vitro phosphate-release absorbance assay)). Details: inhibitor conc at 1 mM stock, 1 hr room temperature, absorbance 630 nm; rounded average of two assay results.
Type: biochemical
Summary of the method: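 Phosphate-release colorimetric assay (Windsor method) in 60 mM Hepes, 3 mM MgCl2, 3 mM CaCl2, 3 mM ATP, pH 6.5, with compound or DMSO control added. Released phosphate developed with ammonium molybdate and ascorbic acid/TCA, then stopped with citrate/acetic acid.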

Compound | % Inhibition of Apyrase
O=C(Nc1ccc2c(c1)OCO2)c1ccc(NS(=O)(=O)c2ccc3c(c2)OCCO3)cc1 [I-921, N-(benzo[d][1,3]dioxol-5-yl)-4-((2,3-dihydrobenzo[b][1,4]dioxine)-6-sulfonamido)benzamide] | 57%
Cc1ccc(C)c(S(=O)(=O)Nc2ccc(C(=O)Nc3cccc(C(F)(F)F)c3)cc2)c1 [I-922, 4-((2,5-dimethylphenyl)sulfonamido)-N-(3-(trifluoromethyl)phenyl)benzamide] | 57%
O=C(c1ccc(NS(=O)(=O)c2ccc3c(c2)OCCCO3)cc1)N1CCc2ccccc21 [I-923, N-(4-(indoline-1-carbonyl)phenyl)-3,4-dihydro-2H-benzo[b][1,4]dioxepine-7-sulfonamide] | 57%
Cc1ccc(NC(=O)c2ccc(NS(=O)(=O)c3ccc(F)c(F)c3)cc2)cc1F [I-924, 4-((3,4-difluorophenyl)sulfonamido)-N-(3-fluoro-4-methylphenyl)benzamide] | 57%
Cc1ccc(S(=O)(=O)N(C)c2ccc(C(=O)Nc3cc([N+](=O)[O-])ccc3C)cc2)cc1 [I-925, 4-((N,4-dimethylphenyl)sulfonamido)-N-(2-methyl-5-nitrophenyl)benzamide] | 56%
O=C(Nc1ccc(Cl)c(Cl)c1)c1ccc(NS(=O)(=O)c2ccc(F)c(F)c2)cc1 [I-926, N-(3,4-dichlorophenyl)-4-((3,4-difluorophenyl)sulfonamido)benzamide] | 56%
Cc1ccc(S(=O)(=O)Nc2ccc(C(=O)Nc3ccc(F)cc3)cc2)cc1C [I-927, 4-((3,4-dimethylphenyl)sulfonamido)-N-(4-fluorophenyl)benzamide] | 56%
N#Cc1cccc(NC(=O)c2ccc(NS(=O)(=O)c3ccc(Br)cc3)cc2)c1 [I-928, 4-((4-bromophenyl)sulfonamido)-N-(3-cyanophenyl)benzamide] | 56%
Cc1ccc(C)c(S(=O)(=O)Nc2ccc(C(=O)Nc3ccc4c(c3)OCO4)cc2)c1 [I-929, N-(benzo[d][1,3]dioxol-5-yl)-4-((2,5-dimethylphenyl)sulfonamido)benzamide] | 55%
O=C(c1ccc(NS(=O)(=O)c2ccc(Cl)c([N+](=O)[O-])c2)cc1)N1CCCc2ccccc21 [I-930, 4-chloro-3-nitro-N-(4-(1,2,3,4-tetrahydroquinoline-1-carbonyl)phenyl)benzenesulfonamide] | 55%
Cc1cc(C)cc(NC(=O)c2ccc(NS(=O)(=O)c3ccc(F)c(Cl)c3)cc2)c1 [I-931, 4-((3-chloro-4-fluorophenyl)sulfonamido)-N-(3,5-dimethylphenyl)benzamide] | 55%
N#Cc1cccc(NC(=O)c2ccc(NS(=O)(=O)c3ccc(F)c(F)c3)cc2)c1 [I-932, N-(3-cyanophenyl)-4-((3,4-difluorophenyl)sulfonamido)benzamide] | 55%
Cc1cc(Br)ccc1NC(=O)c1ccc(NS(=O)(=O)c2ccc(F)cc2)cc1 [I-933, N-(4-bromo-2-methylphenyl)-4-((4-fluorophenyl)sulfonamido)benzamide] | 53%
COc1ccccc1NC(=O)c1ccc(NS(=O)(=O)c2ccc(C(F)(F)F)cc2)cc1 [I-934, N-(2-methoxyphenyl)-4-((4-(trifluoromethyl)phenyl)sulfonamido) benzamide] | 53%
O=C(Nc1ccc2c(c1)OCO2)c1ccc(NS(=O)(=O)c2ccc(Br)cc2)cc1 [I-935, N-(benzo[d][1,3]dioxol-5-yl)-4-((4-bromophenyl)sulfonamido)benzamide] | 52%
Cc1cccc(NC(=O)c2ccc(NS(=O)(=O)c3ccc(Br)cc3)cc2)c1 [I-936, 4-((4-bromophenyl)sulfonamido)-N-(m-tolyl)benzamide] | 52%
Cc1cccc(NC(=O)c2ccc(NS(=O)(=O)c3ccc(F)cc3)cc2)c1C [I-937, N-(2,3-dimethylphenyl)-4-((4-fluorophenyl)sulfonamido)benzamide] | 52%
Cc1ccc(S(=O)(=O)N(C)c2ccc(C(=O)Nc3ccc4c(c3)OCCO4)cc2)cc1 [I-938, N-(2,3-dihydrobenzo[b][1,4]dioxin-6-yl)-4-((N,4-dimethylphenyl)sulfonamido)benzamide] | 51%
O=C(Nc1ccc2c(c1)OCO2)c1ccc(NS(=O)(=O)c2ccc(F)cc2)cc1 [I-939, N-(benzo[d][1,3]dioxol-5-yl)-4-((4-fluorophenyl)sulfonamido)benzamide] | 50%
O=C(Nc1cccc(Br)c1)c1ccc(NS(=O)(=O)c2cccc([N+](=O)[O-])c2)cc1 [I-940, N-(3-bromophenyl)-4-((3-nitrophenyl)sulfonamido)benzamide] | 50%
COc1ccc(NC(=O)c2ccc(NS(=O)(=O)c3ccc4c(c3)OCCO4)cc2)cc1 [I-941, 4-((2,3-dihydrobenzo[b][1,4]dioxine)-6-sulfonamido)-N-(4-methoxyphenyl)benzamide] | 50%
COc1ccccc1NC(=O)c1ccc(NS(=O)(=O)c2ccc(C#N)cc2)cc1 [I-942, 4-((4-cyanophenyl)sulfonamido)-N-(2-methoxyphenyl)benzamide] | 49%

Compound | % Inhibition of Apyrase
COc1ccccc1NC(=O)c1ccc(NS(=O)(=O)c2cccc(Cl)c2Cl)cc1 [I-943, 4-((2,3-dichlorophenyl)sulfonamido)-N-(2-methoxyphenyl)benzamide] | 48%
COc1ccccc1NC(=O)c1ccc(NS(=O)(=O)c2cccc(C#N)c2)cc1 [I-944, 4-((3-cyanophenyl)sulfonamido)-N-(2-methoxyphenyl)benzamide] | 47%
Cc1ccc(NC(=O)c2ccc(NS(=O)(=O)c3ccc(Br)cc3)cc2)cc1S(=O)(=O)N(C)C [I-945, 4-((4-bromophenyl)sulfonamido)-N-(3-(N,N-dimethylsulfamoyl)-4-methylphenyl)benzamide] | 44%
Cc1ccc(S(=O)(=O)N(C)c2ccc(C(=O)Nc3cccc(N4CCCC4=O)c3)cc2)cc1 [I-946, 4-((N,4-dimethylphenyl)sulfonamido)-N-(3-(2-oxopyrrolidin-1-yl)phenyl)benzamide] | 44%
Cc1ccc(S(=O)(=O)N(C)c2ccc(C(=O)Nc3ccccc3OC(F)F)cc2)cc1 [I-947, N-(2-(difluoromethoxy)phenyl)-4-((N,4-dimethylphenyl)sulfonamido)benzamide] | 43%
O=C(Nc1ccc(Br)cc1)c1ccc(NS(=O)(=O)c2ccc(F)c(F)c2)cc1 [I-948, N-(4-bromophenyl)-4-((3,4-difluorophenyl)sulfonamido)benzamide] | 43%
Cc1cccc(NC(=O)c2ccc(NS(=O)(=O)c3ccc4c(c3)OCCO4)cc2)c1 [I-949, 4-((2,3-dihydrobenzo[b][1,4]dioxine)-6-sulfonamido)-N-(m-tolyl)benzamide] | 42%
O=C(Nc1cccc(N2CCCC2=O)c1)c1ccc(NS(=O)(=O)c2ccccc2)cc1 [I-950, N-(3-(2-oxopyrrolidin-1-yl)phenyl)-4-(phenylsulfonamido)benzamide] | 39%
Cc1ccc(NC(=O)c2ccc(NS(=O)(=O)c3ccc(F)cc3)cc2)c(C)c1 [I-951, N-(2,4-dimethylphenyl)-4-((4-fluorophenyl)sulfonamido)benzamide] | 38%
O=C(Nc1ccc(OC(F)F)cc1)c1ccc(NS(=O)(=O)c2ccccc2)cc1 [I-952, N-(4-(difluoromethoxy)phenyl)-4-(phenylsulfonamido)benzamide] | 36%
O=C(Nc1ccc2c(c1)OCO2)c1ccc(NS(=O)(=O)c2cccc(F)c2)cc1 [I-953, N-(benzo[d][1,3]dioxol-5-yl)-4-((3-fluorophenyl)sulfonamido)benzamide] | 26%
Cc1ccc(C)c(S(=O)(=O)Nc2ccc(C(=O)Nc3cccc(C#N)c3)cc2)c1 [I-954, N-(3-cyanophenyl)-4-((2,5-dimethylphenyl)sulfonamido)benzamide] | 25%
Cc1ccc(F)c(NC(=O)c2ccc(NS(=O)(=O)c3ccccc3)cc2)c1 [I-955, N-(2-fluoro-5-methylphenyl)-4-(phenylsulfonamido)benzamide] | 23%
COc1ccc(NC(=O)c2ccc(NS(=O)(=O)c3ccc(Cl)cc3F)cc2)cc1 [I-956, 4-((4-chloro-2-fluorophenyl)sulfonamido)-N-(4-methoxyphenyl)benzamide] | 22%
N#Cc1cccc(NC(=O)c2ccc(NS(=O)(=O)c3ccc(F)cc3)cc2)c1 [I-957, N-(3-cyanophenyl)-4-((4-fluorophenyl)sulfonamido)benzamide] | 20%
COc1ccc(NC(=O)c2ccc(NS(=O)(=O)c3ccc(F)cc3)cc2)cc1OC [I-958, N-(3,4-dimethoxyphenyl)-4-((4-fluorophenyl)sulfonamido)benzamide] | 19%
Cc1cc(F)ccc1S(=O)(=O)Nc1ccc(C(=O)Nc2cccc(C#N)c2)cc1 [I-959, N-(3-cyanophenyl)-4-((4-fluoro-2-methylphenyl)sulfonamido)benzamide] | 17%
O=C(Nc1ccccc1OC(F)F)c1ccc(NS(=O)(=O)c2ccccc2)cc1 [I-960, N-(2-(difluoromethoxy)phenyl)-4-(phenylsulfonamido)benzamide] | 14%
NS(=O)(=O)c1ccc(NC(=O)c2ccc(NS(=O)(=O)c3ccc(F)c(Cl)c3)cc2)cc1 [I-961, 4-((3-chloro-4-fluorophenyl)sulfonamido)-N-(4-sulfamoylphenyl)benzamide] | 14%
N#Cc1cccc(NC(=O)c2ccc(NS(=O)(=O)c3ccc4c(c3)OCCO4)cc2)c1 [I-962, N-(3-cyanophenyl)-4-((2,3-dihydrobenzo[b][1,4]dioxine)-6-sulfonamido)benzamide] | 11%
CC(=O)Nc1ccc(NC(=O)c2ccc(NS(=O)(=O)c3ccc(Br)cc3)cc2)cc1 [I-963, N-(4-acetamidophenyl)-4-((4-bromophenyl)sulfonamido)benzamide] | 10%
